What all share (type): cell-based, human
The test system of one assay is p53. Put plainly: Immunoblot for p53 and p21 in HT-p21-9 and HT-p21-GSE56 cells. The protocol:
Control cells were left untreated (no IPTG). After 1 day, cells were lysed and immunoblot was performed. b. […] As a negative control, parental cells were treated with nutlin-3b (open squares).c-d. […] Control cells were left untreated (no IPTG). c. Morphology. After 3 days, cells were stained for beta-Gal. Scale bars—50 μm.d. Colony formation. After 3 days, cells were washed and incubated in fresh medium w/o drugs for an additional 9 days. Plates were stained with crystal violet and photographed. e. Proliferative potential (PP). After 3 days, HT-p21-GSE56 cells were washed and incubated in fresh medium w/o drugs. Cells were counted and results are shown as percent of IPTG alone.
(§1) Cell lines and reagents. HT-p21-9 and HT-p21-a cells are derivatives of HT1080 human fibrosarcoma cells, where p21 expression can be turned on or off using isopropyl-thio-galactosidase (IPTG) (7, 16, 28, 29, 36). […] HT-p16 cells are derivatives of HT1080 cells in which p16 expression can be turned on or off using IPTG (16, 36). WI-38-Tert, WI-38 are fibroblasts immortalized by telomerase. HT-p21-GSE56 cells: p53 inhibiting peptide GSE56 (18) was introduced into HT1080 p21-9 cells via a retroviral vector LXSE (37). Cells were grown in high glucose DMEM with 10% FC2 serum. WI-38-tert cells were grown in low glucose DMEM with 10% FCS. Rapamycin was obtained from LC Laboratories (Woburn, Mass.). IPTG (final concentration of 50 μg/ml) and FC2 were obtained from Sigma-Aldrich (St. Louis, Mo.).
Immunoblot analysis. Proteins were separated on 4-15% gradient Tris-HCl gels (Bio-Rad). The following antibodies were used: mouse anti-actin from Santa Cruz Biotechnology, rabbit anti-phospho-S6 (Ser240/244) and (Ser235/236), mouse anti-S6, mouse anti-phospho-p70 S6 kinase (Thr389), mouse anti-p21 and anti-p53, rabbit anti-phospho-4E-BP1 (Thr37/46) from Cell Signaling; mouse anti-4E-BP1 from Invitrogen, mouse anti-p53 (Ab-6) from Calbiochem.
(Immunoblotting shows a protein as a band on a membrane.)

In a further assay the test system is HT-p21-GSE56 cells. Put plainly: Proliferation, senescence and proliferative potential of HT-p21-GSE56 cells (p53 function blocked). Particulars: 3 days, washed, fresh medium. On the procedure:
Cell lines and reagents. […] WI-38-Tert, WI-38 are fibroblasts immortalized by telomerase. […] Cells were grown in high glucose DMEM with 10% FC2 serum. WI-38-tert cells were grown in low glucose DMEM with 10% FCS. Rapamycin was obtained from LC Laboratories (Woburn, Mass.). IPTG (final concentration of 50 μg/ml) and FC2 were obtained from Sigma-Aldrich (St. Louis, Mo.).

Assay [1] concerns HT-p21-a cells, HT-p16 cells. Put plainly: Preservation of proliferative potential in IPTG-treated HT-p21-a and HT-p16 cells, nutlin-3a versus nutlin-3b. Particulars: IPTG-regulated p16- and p21-expressing cells.
From the text: FIG. 7. […] Then medium was changed and cells were counted after 8 days. b. […] Then medium was changed and cells were counted after 5 days.
as §1

Assay [2] concerns HT-p21-9 cells. Put plainly: Metabolic labeling, [35S]methionine/cysteine incorporation (protein synthesis). The settings on record: IPTG-treated cells, 24 h treatment. On the procedure:
(§2) FIG. 3. […] Immunoblot. […] Immunoblot was performed as described in the methods for Example 1 below. b. Immunoblot. […] Immunoblot was performed as described in Methods. c. […] After 3 days, cells were washed and incubated in fresh medium w/o drugs for an additional 7 days. Cells were counted and are shown as percent of IPTG alone. d. […] Cells were treated with either IPTG alone (black bars) or IPTG plus rapamycin (white bars) or plus nutlin-3a (grey bars). On days 2, 3, 4, and 5 cells were lysed and protein content per well was measured. […] Cells were labeled with [^35S]methionine/cysteine as described in Methods for Example 1.
FIG. 8. Effects of IPTG and 500 nM rapamycin on protein synthesis ([^35S]methionine/cysteine incorporation). Cells were treated as indicated for 24 hrs and then labeled with [^35S]methionine/cysteine as described in Methods for Example 1.
Metabolic labeling. HT-p21-9 cells were seeded at 25,000 cells/well in 12-well plates. On the next day, cells were treated with drugs. After 24 h, cells were labeled with 30 μCi [^35S]methionine/cysteine (Amersham) per ml of Met/Cys-free Dulbecco's modified Eagle's medium (Invitrogen) for 1 h at 37° C. Cells were washed with PBS and lysed in 1% SDS, with 0.5% BSA. […] Filters were air-dried and counted using liquid scintillation counter.

Another assay concerns WI-38-tert cells. Put plainly: Senescence / quiescence in WI-38-tert fibroblasts. The protocol:
FIG. 4. […] HT-p21-a cells were treated with IPTG and infected with Ad-p53. After 3 days, cells were photographed (original magnification ×200): Upper panel. Under blue light to visualize cells expressing p53 (green cells). Lower panel. Under visible light to visualize all cells. Red arrows indicate cells lacking p53 expression. All of these cells show large, flat cell morphology. Green arrows indicate cells expressing p53. b-d. […] After 1 day, cells were lysed and immunoblot was performed as described in Methods for Example 1. c. […] Cells were then stained for beta-Gal activity and microphotographed. Scale bar—50 μm.d. […] Cells were then trypsinized and counted. […] Results are shown as percent of control.
FIG. 11. Effects of Ad-p21 and Ad-p53 on senescent morphology in WI-38-tert fibroblasts. WI-38-tert cells were infected with either p21-expressing adenovirus (Ad-p21) or p53-expressing adenovirus (Ad-p53) or both. After 3 days, cells were stained for beta-Gal.
as §1
Beta-galactosidase staining Beta-gal staining was performed using Senescence-galactosidase staining kit (Cell Signaling Technology).

Assay [3] concerns HT-p21-9 cells. Put plainly: Protein content per cell (cellular hypertrophy), IPTG-treated HT-p21-9 cells. Particulars: days 2-5. On the procedure: as §2

Entries after “also recorded” stand apart in the source; their conditions may differ.

Turning to `COc1ccc(C2=N[C@@H](c3ccc(Cl)cc3)[C@@H](c3ccc(Cl)cc3)N2C(=O)N2CCNC(=O)C2)c(OC(C)C)c1` [nutlin-3a], in the assay with p53 (1 day), the “induction of p21 by IPTG in HT-p21-GSE56 cells” value was “did not affect this induction”, the “p53 levels in HT-p21-GSE56 cells” value was “did not affect p53 levels in HT-p21-GSE56 cells” and the “p53 levels in HT-p21 cells” value was “induced p53 in HT-p21 cells”. For the same compound, the “levels of p21 induced by IPTG” value in the assay on p53 (HT-p21 cells, IPTG plus compound) is “neither abrogated nor diminished the levels of p21; also recorded: did not prevent induction of p21 by IPTG”. In addition, the “colony formation and proliferative potential (PP) in IPTG-treated HT-p21-GSE56 cells” value in the assay with HT-p21-GSE56 cells was “did not preserve colony formation and proliferative potential (PP)”. Also, the “conversion of senescence into quiescence (preservation of proliferative potential)” value in assay [1] is “preservation of proliferative potential”. Further, in the assay with HT-p21-9 cells [2], the “protein synthesis ([35S]methionine/cysteine incorporation)” value is “inhibited ^35S-methionine/cysteine incorporation in IPTG-treated HT-p21-9 cells in a dose-dependent manner”. Further, in the assay on WI-38-tert cells (10 μM nutlin-3a 3 days, washed, 3 more days, beta-Gal), the “senescence induced by H2O2” value was “suppressed senescence induced by H2O2”. Besides, the “proliferative potential in H2O2-treated cells” value with WI-38-tert cells (10 μM nutlin-3a 3 days, washed, 6 more days) is reported as “partially preserved proliferative potential”. Besides, the “type of arrest in WI-38-tert cells” value in the assay with WI-38-tert cells (compound alone) is recorded as “caused quiescence”. Also, the “protein content per cell” value in the assay on HT-p21-9 cells [3] is listed as “decreased the protein content per cell”.

Source of the values: patent US20120283269A1, “Method and Compositions for Suppression of Aging” (HEALTH RESEARCH INC., priority 2009, published 2012).
